Test results taken from patent US5016655A, “Cigarette manufacturing process” (priority 1989, dated 1991).
Like-named read-outs stand apart in the source and are kept apart here.

Experiments:
[1] = system: mice; settings: cited from earlier work
[2] = transfer of cyclohexanol to cigarette smoke, gas chromatography (Example 7)
Method: This work was performed to determine the amount of cyclohexanol transferred to smoke from cigarettes loaded with the chemical. Duplicate runs were carried out. In each run, smoke from twenty cigarettes, twelve puffs/cigarette, was collected. Cyclohexanol was analyzed in both the particulate (filter extract) and non-particulate phases of cigarette smoke by gas chromatography. A standard curve was made and analyzed simultaneously with the samples.
The total volume of smoke from 20 cigarettes=12×33.3×20=7992 ml [formula]
These calculations are based on the following information:
Using conventional manufacturing practices, 1,000 pounds of dressed rag tobacco yields 510,000 finished cigarettes. These ratios and yields are to be strictly monitored. The ratio of top dressing to rag tobacco is based on the published TLV's for the active ingredient of this dressing--cyclohexanol.

[3] = system: rabbits; settings: TLV documentation (1943); cited from earlier work
[4] = system: smoker exposure versus effect level in animals; assay: daily body burden and exposure versus effect level
[5] = transfer of cyclohexanol into smoke, standard smoking machine (Example 6)
Method: Cyclohexanol appears to meet these criteria.
Cigarettes were hand-laced with cyclohexanol, that is by evenly injecting the alcohol into the rod of a manufactured cigarette using a machine-controlled syringe. […] Sixty cigarettes were smoked on a standard smoking machine using Cambridge filter pads to collect the particulate phase, where most of the material is carried. A transfer efficiency of ten percent was established with this test cigarette. […]. The load was 620 micrograms per cigarette, and the transfer efficiency was ten percent. […].

[6] = system: radioactivity ([14C]NNN) in bronchial epithelium; assay: cyclohexanol vapor inhalation, [14C]NNN autoradiography (Examples 2 and 3); assay type: in vivo, C57BL/6J mouse; settings: vapor 5 min
Method: The mouse was kept in the closed beaker for about five minutes as the bottom of the beaker was maintained at 50° C. in a water bath. […] Handbook of Chemistry and Physics (1979), at D-203 to D-217.
One hour later, the mouse was anesthetized lightly by ether and frozen by immersion in dry ice/hexane. […] Control experiments were conducted for comparison purposes and radioactivity was detected in the respiratory epithelium in the controls.
Example 2 was duplicated, except that the mouse was kept in the closed beaker for five minutes as the bottom of the beaker was maintained at 26° C. in a water bath. […] After injection as in Example 2, the mouse was processed in the same manner as in Example 2.

[7] = calculated air concentrations of cyclohexanol from cigarette smoke; settings: nine puffs at 35 ml, 315 ml
Method: Therefore, 0.050 would be in 315 ml, which would be expected from nine puffs at 35 ml per puff. […] However, this exposure in contrast to the eight-hour work day assumption of the TLV is only during the actual puffing time for the smoker.

[8] = system: localization of nitrosamines (NNN, NNK) in tissues; assay: nitrosamine delocalization / blocking, general statements; settings: in vivo
[9] = Table V; cited from earlier work
[10] = system: human; settings: cited from earlier work
[11] = system: F-344 rat esophagus; settings: F-344 rat esophagus vs other tissues; cited from earlier work
[12] = system: tumor formation; settings: nasal cavity, salivary duct, esophagus, bronchial epithelium, liver; cited from earlier work

OC1CCCCC1 [Cyclohexanol]
acute intravenous toxic dose [1]: 270 mg/kg
% of TLV ([2]; Example 7 summary): 59.5%
Percent of TLV ([2]; Fully Smoked Cigarette): 59.5%
Percent TLV ([2]; Instant ("Puff") Exposure): 4.9%
slight degenerative changes, air level [3]: about 600 mg per cubic meter
body burden from a pack of cigarettes ([4]; all cyclohexanol in smoke absorbed, 20 cigarettes): 1.0 mg
daily burden ([4]; one pack a day smoker): 0.014 mg/kg
mouse iv toxic dose versus human exposure ([4]; one pack a day smoker): 20,000 times
difference in exposure versus effect level in animals ([4]; rats, pharmacological changes (enzyme or neurotoxicity)): ~20,000 fold
smoked concentration as % of TLV ([5]; 620 micrograms per cigarette): 99 % of cyclohexanol TLV
smoked concentration as % of TLV ([5]; 8750 micrograms loaded per cigarette): 1389 % of TLV
radioactivity in bronchial epithelium ([6]; 26° C., 0.001% in air): No radioactivity was detected
radioactivity in bronchial epithelium ([6]; 50° C., 0.01% in air): No radioactivity was detected
instantaneous concentration to a smoker as % of TLV [7]: about 75 % of the TLV value
effectiveness against NNN or NNK [8]: effective against NNN
efficacy in the laboratory [8]: highly effective in the laboratory
Boiling Point [9]: 161 °C
TLV ([10]; Example 7 summary): 200
TLV ([10]; Table of smokestream concentrations): 200.0 µg/L
TLV ([10]; Table of smokestream concentrations, listed as cyclohexanol): 200 µg/L
OSHA safe air level ([10]; eight continuous hours): two hundred
Toxicity: OSHA time weighted average limit ([10]; eight hour work day and forty hour work week): 200 mg/m^3

O=NN1CCCC1c1cccnc1 (stereo not drawn) [NNN, N'-Nitrosonoronicotine]
hydroxylation at the a-carbon of NNN adjacent to the pyridine ring [11]: preferentially catalyzes hydroxylation
number of sites of tumor formation [12]: five
